The values below come from patent publication US20170296568A1, “SIRTUIN GENE POTENTIATOR, AND PHARMACEUTICAL PRODUCT, COSMETIC PRODUCT, AND FOOD PRODUCT USING SAME” (MORISHITA JINTAN CO., LTD., priority 2012, published 2017).

The test deals with sirtuin gene hSIRT1. The test can be described thus: Expression level of endogenous sirtuin gene hSIRT1 in Caco-2 cells (quantitative PCR, relative to β-actin). Type of test: cell-based, human. The settings on record: 10 μM, 2 days, qPCR normalised to β-actin, FIG. 2. The protocol: Caco-2 cells were plated at 3.0×10^5 cells for a 5-mL dish. After 24 hours, each polyphenol was added to be 10 μM. Note that as a negative control, none of polyphenol nor terpenoid was added, and as a positive control, 10 μM resveratrol was added. At 2 days after this treatment, RNA was collected.
The total RNA was prepared using High Pure RNA Isolation Kit (manufactured by Roche, Indianapolis, Ind., USA). For the procedures from the total RNA preparation to the reverse transcription, the reagents and tools used were RNase-free. Cells were prepared in a sub-confluent to confluent condition in a cell culture dish (Greiner bio-one, Monroe, N.C., USA). The medium was completely removed, 200 μL of PBS, and 400 μL of cell lysis solution, which was contained in High Pure RNA Isolation Kit, were added, and the entire dish was well covered by the cell lysis solution. When the viscosity of the cell lysis solution was decreased, the cell lysis solution was collected into a 1.5-mL sample tube. The collected sample was well suspended. A filter tube and a collection tube, which were contained in High Pure RNA Isolation Kit, were assembled, and the sample was pipetted into a buffer reservoir in the upper portion of the filter tube, and was centrifuged at 8,000×g for 15 seconds. The flowthrough liquid into the collection tube was discarded, and the filter tube and the collection tube were again assembled. Then, 90 μL of DNase incubation buffer per sample was pipetted into a sterile reaction tube, and 10 μL of DNase I was added into the tube and mixed. The mixture liquid was pipetted into the buffer reservoir in the upper portion of the filter tube, was added on the glass fiber fleece in the filter tube, and was incubated at room temperature for 15 minutes. Then, 500 μL of wash buffer I, which was contained in High Pure RNA Isolation Kit, was added to the buffer reservoir in the upper portion of the filter tube, and was centrifuged at 8,000×g for 15 seconds. The flowthrough liquid into the collection tube was discarded, and the filter tube and the collection tube were again assembled. Then, 500 μL of wash buffer II was added to the buffer reservoir in the upper portion of the filter tube, and centrifugation was performed at 8,000×g for 15 seconds. The liquid discharged to the collection tube was discarded, and the filter tube and the collection tube were again assembled. Then, 200 μL of wash buffer II was added to the buffer reservoir in the upper portion of the filter tube, and centrifugation was performed at 13,000×g for 2 minutes, after which a remaining wash buffer in the filter tube was removed. The collection tube was discarded, the filter tube was inserted into a sterile reaction tube, and 50 μL of elution buffer was added in the filter tube, and centrifugation was performed at 8,000×g for 1 minute. The eluate obtained by the procedures was taken as an RNA solution. The concentration of RNA in the solution was calculated based on the light absorbance at 260 nm with a NanoDrop 2000/2000c spectrophotometer (Thermo Scientific, Waltham, Mass., USA), for use in subsequent experiments.
Then, 5 pmol of oligo(dT)20 primer was added to 1.0 μg of total RNA extracted from the cells, and sterile water was further added thereto so that the total liquid amount was 13 μL. Heat treatment was performed using a thermal cycler (Peltier Thermal Cycler PTC-200, MJ Research, Watertown, Mass., USA) at 65° C. for 5 minutes, and the resultant was immediately transferred in ice to quench it. During this treatment, the reverse transcriptase reaction program was advanced to the 42° C. stage and was temporarily stopped. A mixture solution obtained by mixing 4 μL of reverse transcriptase reaction buffer solution, 2 μL of 1 mM dNTPs (Amershan Pharmacia Biotech., Buckinghamshire, UK), and 0.5 μL of reverse transcriptase ReverTra Ace (TOYOBO, Osaka, Japan) per sample was added to and gently mixed with the sample on ice after 5 minutes. […]
Background: Quantitative PCR measures a nucleic acid by following its amplification.
In the case of `O=c1c(O)c(-c2ccc(O)c(O)c2)oc2cc(O)ccc12` [fisetin], the “relative gene expression level of hSIRT1” value is “hSIRT1 transcription enhancing effect was observed”.

As to `O=C1OC[C@H]2OC(O)[C@H](O)[C@@H](O)[C@@H]2OC(=O)c2cc(O)c(O)c(O)c2-c2c(O)c(O)c3oc(=O)c4c(c(O)c(O)c5oc(=O)c2c3c54)-c2c1cc(O)c(O)c2O` (mixture of isomers) [punicalin], the “relative gene expression level of hSIRT1” value is reported as “hSIRT1 transcription enhancing effect was observed”.

With `C[C@@]12C=Cc3occc3[C@H]1CC[C@@]13C[C@@H](CC[C@H]12)[C@@](O)(CO)C3` [kahweol], the “relative gene expression level of hSIRT1” value is “hSIRT1 transcription enhancing effect was observed”.

Take `O=c1oc2cc(O)ccc2c2ccc(O)cc12` [urolithin A]: the “relative gene expression level of hSIRT1” value is “hSIRT1 transcription enhancing effect was observed”.

With `O=C1O[C@H]2[C@@H]3OC(=O)c4cc(O)c(O)c(O)c4-c4c(O)c(O)c5oc(=O)c6c(c(O)c(O)c7oc(=O)c4c5c76)-c4c(cc(O)c(O)c4O)C(=O)OC[C@H]3OC(O)[C@@H]2OC(=O)c2cc(O)c(O)c(O)c2-c2c1cc(O)c(O)c2O` (mixture of isomers) [punicalagin], the “relative gene expression level of hSIRT1” value was “hSIRT1 transcription enhancing effect was observed”.
